The text below walks through data of article PMC5614690, “Peptide translocation across MOMP, the major outer membrane channel from Campylobacter jejuni” (Biochemistry and Biophysics Reports, 2017).

Test [1] has as its system Nocardia channel. To be noted: ref [25]; cited from earlier work. The text has this: Binding and translocation can be distinguished using the voltage dependency of the association and disassociation rates. If the time spent by a charged molecule inside the channel increases with increasing voltage, we conclude that the molecule is pulled inside on one side of the channel without being translocated. On the other hand, if the residence time decreases with increasing voltage we conclude that the molecule is able to follow the electric field gradient leaving faster to the other side. In the case of Hepta-arginine, the residence time increased from ~100 to 410 µs with increa ...

Test [2] deals with MOMP channel. Nature of the test: Single-channel ion-current measurement of MOMP in planar lipid bilayer (peptide binding and translocation). More on the design: species or system Campylobacter jejuni (strain 85 H). To be noted: for ion-current blockage of MOMP monomer: 3 µM peptide, +125 mV; for kon (association rate) / koff (dissociation rate): 10 µM peptide, single MOMP monomer (MOMP cis); for kon (association rate): DPhPC bilayer; for Ka (equilibrium binding constant): Ka = kon/koff; for on-rate (range given): Penta- and Hepta-arginine together; for koff (dissociation rate): koff = 1/τ; for association rate kon as a function of applied voltage: +150 to +250 mV, Penta- vs Hepta-arginine, Fig. 3A; for translocation across MOMP: concluded from voltage dependence of ion-current fluctuations; for residence time, cis vs trans peptide addition / frequency of binding events, cis vs trans peptide addition: control: peptide on cis (ground) side; for residence time, cis vs trans peptide addition: –125 to –250 mV; for frequency of binding events, cis vs trans peptide addition: –150 and –250 mV; for threshold potential for successful translocation: peptide trans, MOMP cis. The procedure: The planar lipid bilayer was formed using solvent free lipid bilayer technique, [29]. In brief, the cuvettes used for our bilayer experiments consist of cis (electrical ground and side of protein addition if not otherwise indicated) and trans chambers separated by a 25 µm thick Teflon film (Goodfellow, Cambridge, UK) carrying an aperture with a diameter of 40–70 µm. Prior to forming a lipid bilayer, the aperture is pre-painted with 1 μl of 1% hexadexane in hexane. 5% solution of DPhPC in hexane is commonly used as lipid stock. The chambers are filled with electrolyte solution which typically consists of 1 M KCl, 10 mM MES, pH 6.0 with a total solution volume of 2.5 ml. On top of the aqueous phase about 1 μl of the lipid stock solution is placed. After 10 min allowing for evaporation of solvent, the membrane is formed by raising and lowering the water level. To investigate the outer membrane protein of C. jejuni, MOMP was added to the cis (ground) side of the chamber to a final concentration of 5 ng/ml and the channel insertion was facilitated by rapid mixing of the content of the chamber while applying a transmembrane potential of −199 mV. Electrical recordings were made through a pair of Ag/AgCl electrodes (World Precision Instruments, Sarasota, FL, USA), attached to an Axon Instruments 200B amplifier (Axon Instruments Inc., Sunnyvale, CA, USA) in the voltage clamp mode. Data were filtered by a low pass Bessel filter at 10 kHz and directly saved into the computer memory with a sampling frequency of 50 kHz. Data analysis was performed using Clampfit software of version 10.4 (Axon Instruments Inc., Sunnyvale, CA, USA). To obtain quantitative information on the interaction of peptides with the channel we assume that peptide binding or penetration to the channel cause sufficiently strong reduction of the ion-current compared to the typical background noise. […] This is even more pronounced for longer peptides (Fig. 1C and D).
Fig. 1 Typical ion-conductance traces of monomeric MOMP in presence of poly-arginines at +125 mV. A. In the absence of peptides; B. 3 µM of Tri-arginine; C. […] Experimental conditions: 1 M KCl, 10 mM MES, pH 6.0, T= 20 °C. The peptide is added to the trans compartment of the cuvette corresponding to the electrode at positive voltage. For the sake of clarity the traces were filtered at 5 kHz. MOMP is added on the cis (ground) side (n = 4).
For further analysis we should note that in our experiment we work under dilute concentrations and thus, the number of entries is in good approximation proportional to the concentration of the peptides in solution. The on-rate kon (association rate) is obtained by counting the number of ion-current blockage events per time n [s^−1] divided by the concentration [c] of the peptide, [26], [29], [30]. Furthermore, in some cases we have trimeric MOMP and the ion-current blockages may originate independently from one of the three monomers. kon=n/3[c]
On the other hand the opening is a statistical event and correlated to the strength of the binding. A channel which is closed at t = 0 will have the probability R(t) to open at time t. Within the above described simple binding model an exponential function R(t) = e^-t/τ. Fitting the life-time distribution of a closed channel by an exponential parameter τ (or dwell time) yields the off-rate (dissociation rate) koff = 1/τ [30]. The equilibrium binding constant Ka [M^−1] of the peptide to the channel is given by the ratio of the rates Ka = kon/koff.
Fig. 2 Analysis of the ion-current fluctuations. A. Hepta-arginine concentration dependence of binding events; data were analysed at applied voltages, +150 and +250 mV; and B. Frequency of binding events of the peptide (10 µM) vs. applied transmembrane potential. Experimental conditions: 1 M KCl, 10 mM MES, pH 6.0, T= 20 °C. MOMP is added on the cis (ground) side (n = 4).
A. Voltage dependence of the on-rate; and B. off-rate. […]

The mark [3] stands for this setting: trans side, 1 M KCl, 10 mM MES, pH 6.0, 20 °C, n = 4.
Where [4] appears, read: +150 mV, trans side, 1 M KCl, 10 mM MES, pH 6.0, 20 °C, n = 4.
The mark [5] stands for this setting: +150 mV, 1 M KCl, 10 mM MES, pH 6.0, 20 °C.
The mark [6] stands for this setting: +150 mV, 10 µM, trans side, 1 M KCl, 10 mM MES, pH 6.0, 20 °C.
Setting [7] is: +175 mV, trans side, 1 M KCl, 10 mM MES, pH 6.0, 20 °C, n = 4.
The mark [8] stands for this setting: +175 mV, 1 M KCl, 10 mM MES, pH 6.0, 20 °C.
Where [9] appears, read: +250 mV, trans side, 1 M KCl, 10 mM MES, pH 6.0, 20 °C, n = 4.
[10] abbreviates: +250 mV, 1 M KCl, 10 mM MES, pH 6.0, 20 °C.
[11] abbreviates: 1 M KCl, 10 mM MES, pH 6.0, 20 °C.

Consider “H-RRRRR-OH [Penta-arginine, H-RRRRR-OH trifluoroacetate salt, Mw: 0.798 kDa, from Bachem AG]”, for which the “voltage for pulling peptide through Nocardia channel” value in test [1] was “> –175 mV”. For the same substance, in test [2], the “strength of channel–peptide interaction (order)” value (from here on “strength”) is given as “Hepta-arginine > Penta-arginine > Tri-arginine”, the “association rate kon as a function of applied voltage” value is “almost identical increasing values” and the “translocation across MOMP” value is reported as “translocate across the MOMP channel”. The “ion-current blockage of MOMP monomer” value in test [2] (setting [3]) was “complete monomer blockage”. In addition, in test [2] (setting [4]), the “kon (association rate)” value was 12.9 ± 1.2 (M^−1 s^−1) × 10^6 and the “koff (dissociation rate)” value is recorded as 6.2 ± 0.3 (s^−1) × 10^3. In test [2] (setting [5]), the “Ka (equilibrium binding constant)” value is reported as 2.0 ± 0.5 (M^−1) × 10^3. Further, in test [2] (setting [6]), the “on-rate (range given)” value is given as 13 ± 2 10^6 M^−1 s^−1. Besides, in test [2] (setting [7]), the “kon (association rate)” value was 20.4 ± 1.2 (M^−1 s^−1) × 10^6 and the “koff (dissociation rate)” value is on record as 5.0 ± 0.6 (s^−1) × 10^3. The “Ka (equilibrium binding constant)” value in test [2] (setting [8]) is listed as 4.1 ± 0.3 (M^−1) × 10^3. Further, in test [2] (setting [9]), the “kon (association rate)” value is 34.7 ± 0.8 (M^−1 s^−1) × 10^6 and the “koff (dissociation rate)” value is on record as 10.3 ± 0.8 (s^−1) × 10^3. The “Ka (equilibrium binding constant)” value in test [2] (setting [10]) is 3.3 ± 0.2 (M^−1) × 10^3. For the same substance, in test [2] (Fig. 3B, 10 µM, trans side), the “koff relative to Hepta-arginine” value is “about twice higher off-rates”. Also, in test [2] (n = 4), the “residence time, cis vs trans peptide addition” value is on record as “did not reveal significant differences” and the “frequency of binding events, cis vs trans peptide addition” value is recorded as “did not reveal significant differences”. For the same substance, the permeation vs voltage result in test [2] (increasing voltages) is “permeated faster with increasing voltages”. Moreover, the “threshold potential for successful translocation” value in test [2] (setting [11]) is reported as “+175 mV”.

For the substance “H-RRRRRRR-OH [Hepta-arginine, H-RRRRRRR-OH trifluoro acetate salt, Mw: 1.111 kDa, from Bachem AG]”, the “voltage for pulling peptide through Nocardia channel” value in test [1] is more than −150 mV. Further, in test [2], the “strength” value is on record as “Hepta-arginine > Penta-arginine > Tri-arginine”, the “association rate kon as a function of applied voltage” value is on record as “almost identical increasing values” and the “translocation across MOMP” value is “translocate across the MOMP channel”. The “ion-current blockage of MOMP monomer” value in test [2] (setting [3]) was “complete monomer blockage”. The “number of binding events vs peptide concentration” value in test [2] (1 to 10 µM, +150 and +250 mV, n = 4) is “the number of binding events increased with the concentration of the peptide”. For the same substance, in test [2] (+125 to +175 mV, 10 µM), the “binding vs translocation, low voltage” value is “binds to channel without being translocated”. In test [2] (setting [4]), the “kon (association rate)” value is reported as 14.5 ± 1.5 (M^−1 s^−1) × 10^6 and the “koff (dissociation rate)” value is recorded as 3.2 ± 0.1 (s^−1) × 10^3. Further, the “Ka (equilibrium binding constant)” value in test [2] (setting [5]) is on record as 4.4 ± 0.3 (M^−1) × 10^3. In addition, the “on-rate (range given)” value in test [2] (setting [6]) is 13 ± 2 10^6 M^−1 s^−1. In addition, in test [2] (setting [7]), the “kon (association rate)” value was 22.2 ± 0.8 (M^−1 s^−1) × 10^6 and the “koff (dissociation rate)” value is 2.6 ± 0.3 (s^−1) × 10^3. In addition, the “Ka (equilibrium binding constant)” value in test [2] (setting [8]) is on record as 8.5 ± 0.2 (M^−1) × 10^3. Also, the “reduction in residence time with voltage” value in test [2] (+175 to +250 mV) is given as “reduction of one-fold”. For the same substance, the “binding vs translocation, high voltage” value in test [2] (+175 to +250 mV, 10 µM) is recorded as “successful translocation of the peptide”. Moreover, in test [2] (setting [9]), the “kon (association rate)” value is 39.1 ± 0.5 (M^−1 s^−1) × 10^6 and the “koff (dissociation rate)” value was 5.0 ± 0.8 (s^−1) × 10^3. The “Ka (equilibrium binding constant)” value in test [2] (setting [10]) is 7.7 ± 0.3 (M^−1) × 10^3. Moreover, in test [2] (n = 4), the “residence time, cis vs trans peptide addition” value was “did not reveal significant differences” and the “frequency of binding events, cis vs trans peptide addition” value is reported as “did not reveal significant differences”. Besides, in test [2] (peptide on cis (ground) side, MOMP on trans side, negative voltages), the “ion-current blockage, reverse addition” value is “strong monomer blockages with negative voltages”. The “residence time, end of decrease” value in test [2] (peptide on cis (ground) side, MOMP on trans side, –125 to –250 mV (Fig. S5), final value, 1 M KCl, 10 mM MES, pH 6.0, 20 °C, n = 4) is recorded as 200 µs. For the same substance, in test [2] (peptide on cis (ground) side, MOMP on trans side, –125 to –250 mV (Fig. S5), starting value, 1 M KCl, 10 mM MES, pH 6.0, 20 °C, n = 4), the “residence time, start of decrease” value worked out at 410 µs. The “threshold potential for successful translocation” value in test [2] (setting [11]) is “+175 mV”.

As for Tri-arginine, in test [2], the “strength” value is reported as “Hepta-arginine > Penta-arginine > Tri-arginine”. Besides, the “ion-current blockage of MOMP monomer” value in test [2] (setting [3]) was “visible but very short and not fully resolvable monomer blockages”. The residence time in test [2] (+125 to +250 mV, 10 µM, trans side (MOMP cis), corresponds to time resolution of the instrument, 1 M KCl, 10 mM MES, pH 6.0, 20 °C, n = 4) is listed as ~ 70 ± 5 µs.
